ChEMBL document CHEMBL1154288, “The discovery and unique pharmacological profile of RO4938581 and RO4882224 as potent and selective GABAA alpha5 inverse agonists for the treatment of cognitive dysfunction” (Bioorg Med Chem Lett, 2009)
In brackets after ≈: the same amount, converted by molar mass.

Columns and labels:
[1] = target: T1, GABA-A receptor; alpha-1/beta-3/gamma-2 (Homo sapiens, UniProt P14867+P18507+P28472); test: Displacement of [3H]Flumazenil from cloned human GABA alpha-1-beta-3-gamma-2 receptor expressed in HEK293 cells; format: cell-based
T1 sequence (P14867 whole entry): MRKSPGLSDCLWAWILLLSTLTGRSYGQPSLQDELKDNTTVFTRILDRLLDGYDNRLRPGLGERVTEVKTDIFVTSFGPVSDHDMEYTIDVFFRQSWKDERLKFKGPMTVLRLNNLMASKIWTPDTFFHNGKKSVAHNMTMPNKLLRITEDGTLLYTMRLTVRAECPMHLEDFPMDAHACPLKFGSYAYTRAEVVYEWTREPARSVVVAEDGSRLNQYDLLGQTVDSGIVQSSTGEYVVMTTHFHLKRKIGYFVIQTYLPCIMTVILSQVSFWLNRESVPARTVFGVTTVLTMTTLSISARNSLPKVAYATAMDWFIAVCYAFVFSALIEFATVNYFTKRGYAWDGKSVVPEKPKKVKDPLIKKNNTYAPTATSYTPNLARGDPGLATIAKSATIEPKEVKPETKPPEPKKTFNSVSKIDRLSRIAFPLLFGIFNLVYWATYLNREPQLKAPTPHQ
T1 sequence (P18507 whole entry): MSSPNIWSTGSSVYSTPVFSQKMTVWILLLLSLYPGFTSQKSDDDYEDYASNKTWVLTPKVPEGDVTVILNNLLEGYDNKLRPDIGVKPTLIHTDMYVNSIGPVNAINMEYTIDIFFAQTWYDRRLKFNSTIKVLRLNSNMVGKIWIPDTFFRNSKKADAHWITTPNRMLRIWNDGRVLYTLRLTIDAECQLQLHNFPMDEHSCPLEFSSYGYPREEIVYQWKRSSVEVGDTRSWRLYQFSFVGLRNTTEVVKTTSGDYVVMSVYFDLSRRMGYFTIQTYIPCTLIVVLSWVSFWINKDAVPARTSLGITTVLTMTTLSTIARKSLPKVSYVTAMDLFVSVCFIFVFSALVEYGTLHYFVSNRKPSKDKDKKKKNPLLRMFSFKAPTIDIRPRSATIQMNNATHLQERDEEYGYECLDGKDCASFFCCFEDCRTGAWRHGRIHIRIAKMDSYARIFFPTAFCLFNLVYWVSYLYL
T1 sequence (P28472 whole entry): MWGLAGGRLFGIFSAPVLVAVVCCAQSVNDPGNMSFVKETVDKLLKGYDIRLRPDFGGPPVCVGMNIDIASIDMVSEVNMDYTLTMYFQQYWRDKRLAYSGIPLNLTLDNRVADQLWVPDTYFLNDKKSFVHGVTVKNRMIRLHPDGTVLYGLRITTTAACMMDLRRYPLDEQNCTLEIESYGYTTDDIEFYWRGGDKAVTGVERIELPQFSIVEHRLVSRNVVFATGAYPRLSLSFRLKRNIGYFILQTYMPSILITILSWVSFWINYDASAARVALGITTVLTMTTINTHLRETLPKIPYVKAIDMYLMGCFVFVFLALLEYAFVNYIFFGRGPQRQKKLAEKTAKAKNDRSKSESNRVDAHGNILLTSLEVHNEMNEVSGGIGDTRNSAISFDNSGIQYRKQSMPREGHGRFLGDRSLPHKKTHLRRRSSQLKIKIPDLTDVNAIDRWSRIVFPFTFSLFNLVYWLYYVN

[2] = Lipophilicity, log D at pH 7.4; format: physicochemical; conditions: buffer
HEK293 [3] = test: Selectivity ratio of Ki for cloned human GABA alpha-2-beta-3-gamma-2 receptor expressed in HEK293 cells to Ki for cloned human GABA alpha-5-beta-3-gamma-2 receptor expressed in HEK293 cells; format: cell-based
[4] = target: Gamma-aminobutyric acid receptor subunit alpha-3 (Rattus norvegicus) (UniProt P20236); test: Inverse agonist activity at rat GABA alpha-3-beta-3-gamma-2 receptor expressed in HEK293 cells by electrophysiology assay relative to GABA; format: functional, cell-based
[5] = Oral bioavailability in rat; format: ADME, organism-based; conditions: in vivo
[6] = Half life in rat; format: ADME, organism-based; conditions: in vivo
HEK293 [7] = test: Selectivity ratio of Ki for cloned human GABA alpha-1-beta-3-gamma-2 receptor expressed in HEK293 cells to Ki for cloned human GABA alpha-5-beta-3-gamma-2 receptor expressed in HEK293 cells; format: cell-based
[8] = target: T2, GABA-A receptor; alpha-5/beta-3/gamma-2 (Homo sapiens, UniProt P18507+P28472+P31644); test: Displacement of [3H]Flumazenil from cloned human GABA alpha-5-beta-3-gamma-2 receptor expressed in HEK293 cells; format: cell-based
T2 sequence (P18507 whole entry): T1 sequence (P18507 whole entry)
T2 sequence (P28472 whole entry): T1 sequence (P28472 whole entry)
T2 sequence (P31644 whole entry): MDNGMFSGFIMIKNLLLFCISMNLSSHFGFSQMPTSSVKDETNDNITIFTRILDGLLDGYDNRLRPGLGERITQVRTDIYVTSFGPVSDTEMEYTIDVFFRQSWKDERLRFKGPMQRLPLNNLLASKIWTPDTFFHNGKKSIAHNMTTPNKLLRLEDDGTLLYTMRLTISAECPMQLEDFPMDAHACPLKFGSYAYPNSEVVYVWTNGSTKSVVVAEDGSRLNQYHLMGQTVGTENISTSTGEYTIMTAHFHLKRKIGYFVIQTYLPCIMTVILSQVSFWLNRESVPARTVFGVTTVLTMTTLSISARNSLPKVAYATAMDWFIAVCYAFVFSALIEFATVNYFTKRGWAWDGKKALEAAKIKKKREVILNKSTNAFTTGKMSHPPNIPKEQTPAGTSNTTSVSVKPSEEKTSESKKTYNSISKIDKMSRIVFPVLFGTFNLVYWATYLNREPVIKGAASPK

[9] = target: GABA-A receptor; alpha-1/beta-2/gamma-2 (Rattus norvegicus) (UniProt P18508+P62813+P63138); test: Inverse agonist activity at rat GABA alpha-1-beta-3-gamma-2 receptor expressed in HEK293 cells by electrophysiology assay relative to GABA; format: functional, cell-based
[10] = Solubility by lypophlisation solubility assay; format: physicochemical
[11] = Volume of distribution at steady state in rat; format: ADME, organism-based; conditions: in vivo, read-out: Vdss
[12] = target: GABA A receptor alpha-2/beta-2/gamma-2 (Rattus norvegicus) (UniProt P18508+P23576+P63138); test: Inverse agonist activity at rat GABA alpha-2-beta-3-gamma-2 receptor expressed in HEK293 cells by electrophysiology assay relative to GABA; format: functional, cell-based
[13] = Ratio of drug level in brain to plasma in rat; format: ADME
[14] = Permeability by PAMPA; format: ADME; conditions: read-out: permeability
[15] = target: GABA A receptor alpha-5/beta-3/gamma-2 (Rattus norvegicus) (UniProt P18508+P19969+P63079); test: Inverse agonist activity at rat GABA alpha-5-beta-3-gamma-2 receptor expressed in HEK293 cells by electrophysiology assay relative to GABA; format: functional, cell-based
HEK293 [16] = test: Selectivity ratio of Ki for cloned human GABA alpha-3-beta-3-gamma-2 receptor expressed in HEK293 cells to Ki for cloned human GABA alpha-5-beta-3-gamma-2 receptor expressed in HEK293 cells; format: cell-based
[17] = Clearance in rat; format: ADME, organism-based; conditions: in vivo

Chain of Gamma-aminobutyric acid receptor subunit alpha-3 (Rattus norvegicus) (P20236 whole entry): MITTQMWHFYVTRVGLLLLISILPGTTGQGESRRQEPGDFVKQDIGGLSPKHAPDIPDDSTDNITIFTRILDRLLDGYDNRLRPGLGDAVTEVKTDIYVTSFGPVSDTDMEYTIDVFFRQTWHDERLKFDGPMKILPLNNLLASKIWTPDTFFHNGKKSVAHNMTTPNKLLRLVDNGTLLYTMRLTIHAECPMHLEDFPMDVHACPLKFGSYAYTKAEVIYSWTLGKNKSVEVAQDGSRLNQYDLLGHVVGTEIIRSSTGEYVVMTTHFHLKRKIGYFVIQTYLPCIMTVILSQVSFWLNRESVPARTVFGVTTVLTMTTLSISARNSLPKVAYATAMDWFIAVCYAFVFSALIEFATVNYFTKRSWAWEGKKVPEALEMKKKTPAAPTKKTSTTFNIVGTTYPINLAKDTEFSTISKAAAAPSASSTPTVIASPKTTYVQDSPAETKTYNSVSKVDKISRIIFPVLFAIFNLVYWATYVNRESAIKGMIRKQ

SMILES: Cc1ncn2c1Cn1ncnc1-c1cc(Cl)ccc1-2
- Ki [1]: 18 nM
- logD [2]: 2
- Ratio Ki (HEK293 [3]): 72
- Efficacy [4]: 4%
- bioavailability [5]: 52%
- half-life [6]: 3.4 h
- Ratio Ki (HEK293 [7]): 6
- Ki [8]: 3 nM
- Efficacy [9]: -11%
- solubility [10]: 13 µg/mL (≈ 47.8 µM)
- Vd [11]: 1.9 L/kg
- Efficacy [12]: -2%
- Kp [13]: 0.6
- Papp [14]: 8.9 ×10⁻⁶ cm/s
- Efficacy [15]: -41%
- Ratio Ki (HEK293 [16]): 88
- clearance [17]: 7.2 mL/min/kg

SMILES: Clc1ccc2c(c1)-c1ncnn1Cc1c(Cl)ncn1-2
- Ki [1]: 15 nM
- logD [2]: 1.8
- Ratio Ki (HEK293 [3]): 12
- Efficacy [4]: -11%
- bioavailability [5]: 81%
- half-life [6]: 0.6 h
- Ratio Ki (HEK293 [7]): 7
- Ki [8]: 2 nM
- Efficacy [9]: -3%
- solubility [10]: 27 µg/mL (≈ 92.4 µM)
- Vd [11]: 0.5 L/kg
- Efficacy [12]: -9%
- Kp [13]: 0.2
- Papp [14]: 6.5 ×10⁻⁶ cm/s
- Efficacy [15]: -40
- Ratio Ki (HEK293 [16]): 7
- clearance [17]: 12.4 mL/min/kg

SMILES: FC(F)c1ncn2c1Cn1ncnc1-c1cc(Br)ccc1-2
- Ki [1]: 174 nM
- logD [2]: 1.9
- Efficacy [4]: 2%
- bioavailability [5]: 89%
- half-life [6]: 4.9 h
- Ki [8]: 4.6 nM
- Efficacy [9]: -3%
- solubility [10]: 19 µg/mL (≈ 54 µM)
- Vd [11]: 1.2 L/kg
- Efficacy [12]: -4%
- Kp [13]: 0.4
- Papp [14]: 7 ×10⁻⁶ cm/s
- Efficacy [15]: -35%
- clearance [17]: 2.9 mL/min/kg

SMILES: Clc1ncn2c1Cn1ncnc1-c1cc(Br)ccc1-2
- Ki [1]: 33 nM
- logD [2]: 2.2
- Ratio Ki (HEK293 [3]): 18
- Efficacy [4]: -14%
- bioavailability [5]: 56%
- half-life [6]: 1.6 h
- Ratio Ki (HEK293 [7]): 24
- Ki [8]: 1.4 nM
- Efficacy [9]: -13%
- solubility [10]: 9 µg/mL (≈ 26.7 µM)
- Vd [11]: 1.3 L/kg
- Efficacy [12]: -25%
- Papp [14]: 7 ×10⁻⁶ cm/s
- Efficacy [15]: -48%
- Ratio Ki (HEK293 [16]): 7
- clearance [17]: 9.7 mL/min/kg
